These are literature values, as cited in EP1694724B1, “pH SENSITIVE POLYMER AND PROCESS FOR PREPARATION THEREOF” (Council of Scientific and Industrial Research, priority 2003, dated 2005).

For the data set the following is noted: humans.

On to `CO/N=C(\C(=O)N[C@@H]1C(=O)N2C(C(=O)OC(C)OC(C)=O)=C(COC(N)=O)CS[C@H]12)c1ccco1` (stereo partly shown) [Cefuroxime axetil, cefuroxime axetil], for which the bioavailability was 32-50%.
